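Briefly, cells in 96-well plates were exposed to five compound concentrations for 48 h, and endpoints were estimated by linear interpolation. At the GI50, growth is halved. At the TGI there is no net growth.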 *1 amine or outer side, *2 acyl side, *3 side chain or, on linkers, in order; H or OH if unused. Where a SMILES comes first, the peptide text is derived from it. [ ]: non-standard residue; d: D form. X33 = C=CCC(O[*:1])C(=O)[*:2]; NMeV = CN[CH](C(=O)O)C(C)C; NMeA = CN[CH](C)C(=O)O; βAla = NCCC(=O)O
What was measured:
Test in all cases: inhibition of tumour cell growth, NCI panel, 48 h
[1] = test system: U251 CNS
[2] = test system: HL-60(TB) leukemia
[3] = test system: HCT-116 colon
[4] = test system: SF-295 CNS
[5] = test system: OVCAR-8 ovarian
[6] = test system: TK-10 renal
[7] = test system: NCI-H23 lung
[8] = test system: HOP-92 NSCLC
[9] = test system: MALME-3M melanoma
[10] = test system: SK-MEL-2 melanoma

| Compound | TGI [1] | TGI [2] | TGI [3] | TGI [4] | TGI [5] | TGI [6] | TGI [7] | TGI [8] | TGI [9] | TGI [10] | GI50 [1] | GI50 [2] | GI50 [4] | GI50 [9] | GI50 [5] | GI50 [6] | GI50 [7] | GI50 [10] | GI50 [8] |
| --- | --- | --- | --- | --- | --- | --- | --- | --- | --- | --- | --- | --- | --- | --- | --- | --- | --- | --- | --- |
| CC(c1ccccc1)/[N+]([O-])=C/c1ccccc1 (configuration not stated) | > 100 µM | > 100 µM | > 100 µM | > 100 µM | > 100 µM | > 100 µM | > 100 µM | > 100 µM |  |  |  |  |  |  |  |  |  |  |  |
| Nc1nc(N)c2[nH]cnc2n1 (tested in a mixture with another compound) | > 100 µM | > 100 µM | 41.8 µM | > 100 µM | > 100 µM | 80.7 µM | 77.5 µM | > 100 µM | > 100 µM | 77.5 µM |  |  |  |  |  |  |  |  |  |
| C=CCC1OC(=O)CCNC(=O)C(C)N(C)C(=O)C(C(C)C)N(C)C(=O)C(C(C)CC)NC(=O)C2CCCN2C1=O (configuration not stated) (cyclo([X33]PI[NMeV][NMeA][βAla]); configuration not given here) | > 100 µM | 8.47 µM | > 100 µM | > 100 µM | > 100 µM | > 100 µM | > 100 µM | > 100 µM |  | > 100 µM |  |  |  |  |  |  |  |  |  |
| Cc1ccc2c(C)c3ccc4ccccc4c3c[n+]2c1 | 23 µM | > 100 µM | > 89.7 µM | > 81.1 µM | 36.9 µM | > 100 µM | 38.6 µM | 52.7 µM | 9.74 µM | 29.5 µM |  |  |  |  |  |  |  |  |  |
| C/C(=N\NC(=S)Nc1ccc(C)cc1)c1nc2ncccc2[nH]1 | 15.4 µM |  | 14.3 µM |  | 12.3 µM | 37 µM | 19.8 µM | 24.1 µM | 37.5 µM | 25.4 µM |  |  |  |  |  |  |  |  |  |
| CC1OC1C(=O)C1(O)C(C)C(O)C23OC2(C(O)c2c(O)cccc2C3=O)C1O (configuration not stated) | 1.09 µM | 0.383 µM | 0.703 µM | 0.693 µM | 1.72 µM |  | 0.543 µM | 0.0971 µM | 0.247 µM | 0.413 µM |  |  |  |  |  |  |  |  |  |
| CCSc1nc(=[N+]2CCCC2)ss1 | > 100 µM | 26.6 µM | > 86.9 µM | > 100 µM | > 100 µM | > 100 µM | > 79.9 µM | > 100 µM | > 100 µM | > 100 µM |  |  |  |  |  |  |  |  |  |
| COc1ccc(-c2c3c(nc4nc(SC)nc(SC)c24)CCCC3)cc1OC | > 100 µM | 51.4 µM | > 100 µM | > 100 µM |  | > 100 µM | > 100 µM | > 100 µM | > 100 µM | > 100 µM |  |  |  |  |  |  |  |  |  |
| C[C@]12CCc3sc(Nc4ccc(O)cc4)nc3C1=CC[C@@H]1[C@@H]2CC[C@]2(C)C(=O)CC[C@@H]12 | 21.9 µM | 7.27 µM |  | 35.9 µM | > 100 µM | 4.4 µM | > 100 µM | 5.65 µM | 4.03 µM | > 100 µM | 3.06 µM | 2.57 µM | 5.26 µM | 1.81 µM | 3.22 µM | 2.01 µM | 3.96 µM | 6.98 µM | 2.39 µM |
| CN1CCN(c2cc(-c3cc4ccccc4o3)oc(=O)c2C#N)CC1 | > 100 µM | > 100 µM | > 100 µM | > 100 µM | > 100 µM | > 100 µM | > 100 µM |  | > 100 µM | > 100 µM |  |  |  |  |  |  |  |  |  |
| CCOP(=O)(CN=C(c1ccccc1)c1ccccc1)OCC | > 100 µM | > 100 µM | > 100 µM | > 100 µM | > 100 µM | > 100 µM | > 100 µM | > 100 µM |  | > 100 µM |  |  |  |  |  |  |  |  |  |
| O=C(NN1C(=O)CSC1c1ccc(C(F)(F)F)cc1)c1ccncc1 (configuration not stated) | > 100 µM | > 100 µM | > 100 µM | > 100 µM | > 100 µM |  | > 100 µM | > 100 µM | > 100 µM | > 100 µM |  |  |  |  |  |  |  |  |  |
| NC(=S)N/N=C1\c2ccccc2CCC1CCC1(O)CCc2ccccc2C1=O (configuration not stated) | > 100 µM | 20.6 µM | 40.2 µM | 59 µM | 35.1 µM | 54.3 µM | 87 µM |  | 36.7 µM |  |  |  |  |  |  |  |  |  |  |
| O=C1OCC/C1=C/c1ccc(N=Nc2c(O)ccc3ccccc23)cc1 | 39.2 µM | 57.1 µM | 34.6 µM | 47.8 µM | 72 µM | 35.3 µM | 44.8 µM | 47.3 µM | 32.3 µM | 55.2 µM |  |  |  |  |  |  |  |  |  |
| Cc1ccc(Nc2nc(NS(=O)(=O)c3cc(C(=O)Nc4ccc(Cl)cc4)c(Cl)cc3S)n[nH]2)cc1 | > 100 µM | > 100 µM | > 100 µM | > 100 µM | > 100 µM | > 100 µM | > 100 µM |  | > 100 µM |  |  |  |  |  |  |  |  |  |  |
| CCc1nnc(-c2nsc3ccccc23)s1 | > 100 µM | > 100 µM | > 100 µM |  | > 100 µM | > 100 µM | > 100 µM | > 100 µM |  | > 100 µM |  |  |  |  |  |  |  |  |  |
| CC(CCC(=O)O)C1CCC2C3C(O)CC4CC(O)CCC4(C)C3CC(O)C12C (configuration not stated) | > 100 µM | > 100 µM | > 100 µM | > 100 µM | > 100 µM | > 100 µM | > 100 µM | > 100 µM | > 100 µM | > 100 µM |  |  |  |  |  |  |  |  |  |
| COC1=CC(=O)c2c(O)c3c(c(O)c2C1=O)C=C(C)OC3O (configuration not stated) | 7.72 µM | > 23 µM | 2.3 µM | 5.06 µM | 2.82 µM | 7.9 µM | 2.25 µM | 20.9 µM | 0.877 µM | 5.19 µM |  |  |  |  |  |  |  |  |  |
